Patent US8975264B2, “Compound acting as a cannabinoid receptor-1 inhibitor” (Amorepacific Corporation, priority 2010, dated 2015)

The compounds below were run against human CB1 (cannabinoid receptor 1) (Homo sapiens, UniProt P21554) (assay: CB1 receptor inhibition effect: calcium ion influx assay (Fluo-4 NW) in Chem-1 cells after 1 μM R-(+)-WIN55212-2). Details: calcium ion influx in Chem-1 cells expressing human CB1, 1 μM R-(+)-WIN55212-2.
Format: cell-based
Method: When cells in which the cannabinoid receptor 1 (CB1) is stably expressed are treated with a CB1 receptor agonist, the CB1 receptor is activated and influx of calcium ions into the cells increases. CB1 receptor inhibition effect of a test compound can be evaluated by measuring the degree of calcium influx inhibition after treating with the test compound.
First, Chem-1 cells (Chemicon International, #HTS019C) in which human CB1 cDNA is expressed stably were seeded onto a 96-well cell culture plate at a density of ˜50,000 cells/well and incubated overnight in a 5% CO2 incubator at 37° C. The next day, the culture medium was discarded and the cells were cautiously washed once using an assay buffer (HBSS containing 20 mM HEPES and 2.5 mM probenecid) with 200 μL/well. Calcium ion influx was measured using an assay kit (Fluo-4 NW calcium assay kit: Molecular Probes™, #F36206) according to the manufacturer's instructions. The compounds of Examples of desired concentration to be measured were comprised to 0.5% DMSO. For control, only 0.5% DMSO was used without the compounds of Examples. Reaction time was 10 minutes. After treating the Chem-1 cells stably expressing the CB1 receptor with 1 μM R-(+)-WIN55212-2 (Sigma, #W102), a CB1 receptor agonist, calcium ion (Ca^2+) flux induced thereby was measured for 80 seconds using Flex Station 3 (Molecular Device, USA).
The difference in calcium ion concentration of the cells treated with the compounds of Examples or those treated with 1 μM R-(+)-WIN55212-2 was obtained from the difference of the maximum and minimum values during the 80 seconds. Then, % inhibition of the compounds for the CB1 receptor was calculated using the following equation. % inhibition={1−(ΔRFUcompound−ΔRFUBlank)/(ΔRFUControl−ΔRFUBlank)}×100 [Equation]
ΔRFU: maximum relative fluorescence units−minimum relative fluorescence units
ΔRFUCompound: difference in maximum and minimum RFUs in the well where the compounds of Examples dissolved in DMSO to a final concentration of 0.5% and 1 μM R-(+)-WIN55212-2 dissolved in DMSO to a final concentration of 0.5% were added
ΔRFUBlank: difference in maximum and minimum RFUs in the well to which only 1% DMSO was added
ΔRFUControl: difference in maximum and minimum RFUs in the well where 0.5% DMSO and 1 μM R-(+)-WIN55212-2 dissolved in DMSO to a final concentration of 0.5% were added

human CB1 (cannabinoid receptor 1), sequence (P21554 whole entry): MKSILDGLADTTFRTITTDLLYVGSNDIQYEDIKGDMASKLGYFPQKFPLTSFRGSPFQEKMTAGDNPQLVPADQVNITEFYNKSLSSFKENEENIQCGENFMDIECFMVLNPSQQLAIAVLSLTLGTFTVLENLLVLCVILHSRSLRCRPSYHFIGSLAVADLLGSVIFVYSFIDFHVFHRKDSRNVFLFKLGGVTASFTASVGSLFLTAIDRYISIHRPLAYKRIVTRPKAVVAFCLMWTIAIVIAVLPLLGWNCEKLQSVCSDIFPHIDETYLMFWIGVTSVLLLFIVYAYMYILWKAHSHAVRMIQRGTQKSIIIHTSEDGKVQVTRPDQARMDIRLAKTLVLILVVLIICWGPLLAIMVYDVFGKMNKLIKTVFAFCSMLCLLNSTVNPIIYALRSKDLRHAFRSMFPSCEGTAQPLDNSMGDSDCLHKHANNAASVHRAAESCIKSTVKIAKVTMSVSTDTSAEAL

Which IC50 does the source give for Cc1nn2c(-c3cccc(Cl)c3)cc(N3CCC[C@H]3CO)nc2c1-c1ccc(Cl)cc1 [Example 2, (S)-(1-(3-(4-chlorophenyl)-7-(3-chlorophenyl)-2-methylpyrazolo[1,5-a]pyrimidin-5-yl)pyrrolidin-2-yl)methanol] here?
Its IC50 is 100 nM.

How did the IC50 turn out when Cc1nn2c(-c3cccc(F)c3)cc(N3CCC[C@H]3CO)nc2c1-c1ccc(Cl)cc1 [Example 3] was run?
Its IC50 is 93 nM.

Cc1nn2c(-c3ccccc3F)cc(N3CCC[C@H]3CO)nc2c1-c1ccc(Cl)cc1 [Example 4] was tested. Which IC50 did it give?
Its IC50 is 360 nM.

Which IC50 does the source give for Cc1nn2c(-c3ccccc3)cc(N3CCC[C@H]3CO)nc2c1-c1ccc(Cl)cc1 [Example 5] here?
The IC50 was 96 nM.

With COc1cccc(-c2cc(N3CCC[C@H]3CO)nc3c(-c4ccc(Cl)cc4)c(C)nn23)c1 [Example 6] as the compound, how does the IC50 read?
The IC50 was 200 nM.

Which IC50 does the source give for Cc1nn2c(-c3cccc(C(F)(F)F)c3)cc(N3CCC[C@H]3CO)nc2c1-c1ccc(Cl)cc1 [Example 9] here?
The IC50 was 120 nM.

How did the IC50 turn out when Cc1ccc(-c2cc(N3CCC[C@H]3CO)nc3c(-c4ccc(Cl)cc4)c(C)nn23)cc1 [Example 11] was run?
Its IC50 is 270 nM.

For Cc1cccc(-c2cc(N3CCC[C@H]3CO)nc3c(-c4ccc(Cl)cc4)c(C)nn23)c1 [Example 12], which IC50 is on record?
Its IC50 is 210 nM.

Which IC50 does the source give for Cc1ccccc1-c1cc(N2CCC[C@H]2CO)nc2c(-c3ccc(Cl)cc3)c(C)nn12 [Example 13] here?
The IC50 was 300 nM.

How did the IC50 turn out when CCc1cccc(-c2cc(N3CCC[C@H]3CO)nc3c(-c4ccc(Cl)cc4)c(C)nn23)c1 [Example 14] was run?
Its IC50 is 90 nM.

Which IC50 does the source give for Cc1nn2c(-c3ccc(Cl)cc3)cc(N3CCC[C@H]3CO)nc2c1-c1ccc(Cl)cc1 [Example 15] here?
The IC50 was 350 nM.

Cc1nn2c(-c3ccc(F)c(F)c3)cc(N3CCC[C@H]3CO)nc2c1-c1ccc(Cl)cc1 [Example 21] was tested. Which IC50 did it give?
Its IC50 is 51 nM.

Cc1nn2c(-c3ccc(F)cc3F)cc(N3CCC[C@H]3CO)nc2c1-c1ccc(Cl)cc1 [Example 22] was tested. Which IC50 did it give?
The IC50 was 110 nM.

COc1cccc(-c2cc(N3CCC[C@H]3CO)nc3c(-c4ccc(C)cc4)c(C)nn23)c1 [Example 25, (S)-(1-(3-(4-methylphenyl)-7-(3-methoxyphenyl)-2-methylpyrazolo[1,5-a]pyrimidin-5-yl)pyrrolidin-2-yl)methanol] was tested. Which IC50 did it give?
Its IC50 is 39 nM.

How did the IC50 turn out when Cc1ccc(-c2c(C)nn3c(-c4ccc(F)c(F)c4)cc(N4CCC[C@H]4CO)nc23)cc1 [Example 26, (S)-(1-(3-(4-methylphenyl)-7-(3,4-difluorophenyl)-2-methylpyrazolo[1,5-a]pyrimidin-5-yl)pyrrolidin-2-yl)methanol] was run?
The IC50 was 53 nM.

COc1ccc(-c2cc(N3CCC[C@H]3CO)nc3c(-c4ccc(C)cc4)c(C)nn23)cc1 [Example 27] was tested. Which IC50 did it give?
The IC50 was 240 nM.

Which IC50 does the source give for Cc1ccc(-c2c(C)nn3c(-c4ccccc4)cc(N4CCC[C@H]4CO)nc23)cc1 [Example 28] here?
The IC50 was 120 nM.

For Cc1ccc(-c2c(C)nn3c(-c4ccc(C)cc4)cc(N4CCC[C@H]4CO)nc23)cc1 [Example 30], which IC50 is on record?
Its IC50 is 160 nM.

Which IC50 does the source give for CCc1cccc(-c2cc(N3CCC[C@H]3CO)nc3c(-c4ccc(C)cc4)c(C)nn23)c1 [Example 31] here?
The IC50 was 130 nM.

Which IC50 does the source give for Cc1ccc(-c2c(C)nn3c(-c4ccc(Cl)cc4)cc(N4CCC[C@H]4CO)nc23)cc1 [Example 32] here?
The IC50 was 140 nM.

How did the IC50 turn out when Cc1ccc(-c2c(C)nn3c(-c4ccccc4F)cc(N4CCC[C@H]4CO)nc23)cc1 [Example 33] was run?
Its IC50 is 82 nM.

With Cc1ccc(-c2c(C)nn3c(-c4ccc(F)cc4F)cc(N4CCC[C@H]4CO)nc23)cc1 [Example 34] as the compound, how does the IC50 read?
Its IC50 is 220 nM.

How did the IC50 turn out when Cc1ccc(-c2c(C)nn3c(-c4cc(F)cc(F)c4)cc(N4CCC[C@H]4CO)nc23)cc1 [Example 35] was run?
Its IC50 is 410 nM.

With Cc1ccc(-c2c(C)nn3c(-c4ccc(F)c(Cl)c4)cc(N4CCC[C@H]4CO)nc23)cc1 [Example 36] as the compound, how does the IC50 read?
Its IC50 is 100 nM.

COc1ccc(-c2c(C)nn3c(-c4ccccc4)cc(N4CCC[C@H]4CO)nc23)cc1 [Example 37, (S)-(1-(3-(4-methoxyphenyl)-7-phenyl-2-methylpyrazolo[1,5-a]pyrimidin-5-yl)pyrrolidin-2-yl)methanol] was tested. Which IC50 did it give?
The IC50 was 140 nM.

For COc1ccc(-c2c(C)nn3c(-c4ccc(F)c(F)c4)cc(N4CCC[C@H]4CO)nc23)cc1 [Example 38, (S)-{1-[7-(3,4-difluorophenyl)-3-(4-methoxyphenyl)-2-methylpyrazolo[1,5-a]pyrimidin-5-yl)pyrrolidin-2-yl)methanol], which IC50 is on record?
The IC50 was 100 nM.

COc1ccc(-c2c(C)nn3c(-c4ccccc4F)cc(N4CCC[C@H]4CO)nc23)cc1 [Example 39] was tested. Which IC50 did it give?
Its IC50 is 250 nM.

For COc1ccc(-c2c(C)nn3c(-c4ccc(OC)cc4)cc(N4CCC[C@H]4CO)nc23)cc1 [Example 40], which IC50 is on record?
The IC50 was 350 nM.

For COc1ccc(-c2c(C)nn3c(-c4cccc(OC)c4)cc(N4CCC[C@H]4CO)nc23)cc1 [Example 41], which IC50 is on record?
The IC50 was 260 nM.

Which IC50 does the source give for COc1ccc(-c2c(C)nn3c(-c4ccc(C)cc4)cc(N4CCC[C@H]4CO)nc23)cc1 [Example 42] here?
Its IC50 is 350 nM.

For CCc1cccc(-c2cc(N3CCC[C@H]3CO)nc3c(-c4ccc(OC)cc4)c(C)nn23)c1 [Example 43], which IC50 is on record?
The IC50 was 210 nM.

For COc1ccc(-c2c(C)nn3c(-c4ccc(Cl)cc4)cc(N4CCC[C@H]4CO)nc23)cc1 [Example 44], which IC50 is on record?
The IC50 was 160 nM.

How did the IC50 turn out when COc1ccc(-c2c(C)nn3c(-c4cc(F)cc(F)c4)cc(N4CCC[C@H]4CO)nc23)cc1 [Example 45] was run?
The IC50 was 120 nM.

For COc1ccc(-c2c(C)nn3c(-c4ccc(F)c(Cl)c4)cc(N4CCC[C@H]4CO)nc23)cc1 [Example 46], which IC50 is on record?
The IC50 was 190 nM.

Which IC50 does the source give for CCOc1ccc(-c2c(C)nn3c(-c4ccccc4)cc(N4CCC[C@H]4CO)nc23)cc1 [Example 47, (S)-(1-(3-(4-ethoxyphenyl)-7-phenyl-2-methylpyrazolo[1,5-a]pyrimidin-5-yl)pyrrolidin-2-yl)methanol] here?
Its IC50 is 130 nM.

With CCOc1ccc(-c2c(C)nn3c(-c4ccc(F)c(F)c4)cc(N4CCC[C@H]4CO)nc23)cc1 [Example 48, (S)-{1-[7-(3,4-difluorophenyl)-3-(4-ethoxyphenyl)-2-methylpyrazolo[1,5-a]pyrimidin-5-yl)pyrrolidin-2-yl)methanol] as the compound, how does the IC50 read?
Its IC50 is 180 nM.

For CCOc1ccc(-c2c(C)nn3c(-c4cccc(OC)c4)cc(N4CCC[C@H]4CO)nc23)cc1 [Example 51], which IC50 is on record?
Its IC50 is 250 nM.

Which IC50 does the source give for CCOc1ccc(-c2c(C)nn3c(-c4ccc(C)cc4)cc(N4CCC[C@H]4CO)nc23)cc1 [Example 53] here?
Its IC50 is 390 nM.

CCOc1ccc(-c2c(C)nn3c(-c4cc(F)cc(F)c4)cc(N4CCC[C@H]4CO)nc23)cc1 [Example 55] was tested. Which IC50 did it give?
Its IC50 is 200 nM.

For Cc1nn2c(-c3ccccc3)cc(N3CCC[C@H]3CO)nc2c1-c1ccc2c(c1)OCO2 [Example 56, (S)-(1-(3-(3,4-methylenedioxyphenyl)-7-(phenyl)-2-methylpyrazolo[1,5-a]pyrimidin-5-yl)pyrrolidin-2-yl)methanol], which IC50 is on record?
The IC50 was 90 nM.

Which IC50 does the source give for Cc1nn2c(-c3ccccc3F)cc(N3CCC[C@H]3CO)nc2c1-c1ccc2c(c1)OCO2 [Example 57] here?
The IC50 was 240 nM.

How did the IC50 turn out when CCc1cccc(-c2cc(N3CCC[C@H]3CO)nc3c(-c4ccc5c(c4)OCO5)c(C)nn23)c1 [Example 60] was run?
Its IC50 is 210 nM.

With Cc1nn2c(-c3cc(F)cc(F)c3)cc(N3CCC[C@H]3CO)nc2c1-c1ccc2c(c1)OCO2 [Example 62, (S)-(1-(3-(3,4-methylenedioxyphenyl)-7-(3,5-difluorophenyl)-2-methylpyrazolo[1,5-a]pyrimidin-5-yl)pyrrolidin-2-yl)methanol] as the compound, how does the IC50 read?
Its IC50 is 70 nM.

Which IC50 does the source give for Cc1ccc(-c2c(C)nn3c(-c4ccc(F)cc4)cc(N4CCC[C@H]4CO)nc23)cc1 [Example 63, (S)-(1-(3-(4-methylphenyl)-7-(4-fluorophenyl)-2-methylpyrazolo[1,5-a]pyrimidin-5-yl)pyrrolidin-2-yl)methanol] here?
The IC50 was 41 nM.

With COc1ccc(-c2c(C)nn3c(-c4ccc(F)cc4)cc(N4CCC[C@H]4CO)nc23)cc1 [Example 64, (S)-(1-(3-(4-methoxyphenyl)-7-(4-fluorophenyl)-2-methylpyrazolo[1,5-a]pyrimidin-5-yl)pyrrolidin-2-yl)methanol] as the compound, how does the IC50 read?
Its IC50 is 170 nM.

How did the IC50 turn out when CCOc1ccc(-c2c(C)nn3c(-c4ccc(F)cc4)cc(N4CCC[C@H]4CO)nc23)cc1 [Example 65] was run?
The IC50 was 100 nM.

Cc1nn2c(-c3ccc(F)cc3)cc(N3CCC[C@H]3CO)nc2c1-c1ccc2c(c1)OCO2 [Example 66] was tested. Which IC50 did it give?
The IC50 was 140 nM.

Which IC50 does the source give for Cc1nn2c(-c3ccc(F)cc3)cc(N3CCC[C@H]3CO)nc2c1-c1ccc(C(F)F)cc1 [Example 67] here?
The IC50 was 94 nM.

With CSc1ccc(-c2c(C)nn3c(-c4ccc(F)cc4)cc(N4CCC[C@H]4CO)nc23)cc1 [Example 68] as the compound, how does the IC50 read?
The IC50 was 170 nM.

Cc1nn2c(-c3ccc(F)cc3)cc(N3CCC[C@H]3CO)nc2c1-c1ccc(C(F)(F)F)cc1 [Example 69] was tested. Which IC50 did it give?
Its IC50 is 220 nM.

Which IC50 does the source give for CCc1ccc(-c2c(C)nn3c(-c4ccc(F)cc4)cc(N4CCC[C@H]4CO)nc23)cc1 [Example 70] here?
The IC50 was 230 nM.
